Data published in patent US20250346597A1, “CONDENSED HETEROCYCLIC COMPOUNDS AS INHIBITOR OF DIACYLGLYCEROL KINASES” (BEONE MEDICINES I GMBH, priority 2023, published 2025).

Experiments:
[1] = target: DGKα (Homo sapiens (Human), UniProt P23743); assay: Biochemical DGK IC50 assay (ADP-Glo, lipid micelle substrate), DGKα; settings: full length DGKα […], ATP 140 μM, DAG 80 μM; also: full length DGKα 7.5 nM
Protocol: (§1) Enzymatic reactions of DGKζ, DGKα and DGKδ were performed using ADP-Glo assay with lipid micelle substrate. […] Full length DGKα (D21-10BG, SignalChem) and full length DGKδ (D23-10G, SignalChem) were purchased. Lipid micelle was prepared by dissolving DAG (Sigma, 317505-10MG) and PS (Sigma, P7769-100MG) with chloroform which was furtherly removed by rotary evaporation. The resulted product was resuspended in buffer containing 25 mM HEPES pH 7.0, 0.5 mM EDTA and 160 mM Octyl P-D glucopyranoside by vigorous mixing and ultrasonic (IID, Scientz).
(§2) The inhibition activities testing for the compound disclosed herein were carried out at room temperature in assay buffer containing 50 mM HEPES, 10 mM MgCl2, 0.01% BSA, 0.1 mM Na3VO4, 0.005% Tween-20 and 0.01 mM CaCl2. Compounds in DMSO were dispensed into wells of a black 384 well plate (Corning 4514) using D300e digital dispenser (Tecan). […] 3 μL 2× enzyme solution was added to wells. […] After 1 hour reaction, 5 μL ADP-Glo reagent (Promga V9101) was added and incubated for 40 minutes. 10 μL Kinase Detection reagent was added and incubated for 30 minutes. Luminescence was measured on a microplate reader (PHERAstar FSX, BMG labtech). The IC50s are calculated based on inhibition of enzyme activity in the presence of increasing concentrations of compounds.

[2] = target: DGKζ (Homo sapiens (Human), UniProt Q13574); assay: Biochemical DGK IC50 assay (ADP-Glo, lipid micelle substrate), DGKζ; settings: full length DGKζ 0.5 nM, ATP 140 μM, DAG 80 μM
Chain of DGKζ (Q13574 other isoform, or with tags, fused parts or gaps): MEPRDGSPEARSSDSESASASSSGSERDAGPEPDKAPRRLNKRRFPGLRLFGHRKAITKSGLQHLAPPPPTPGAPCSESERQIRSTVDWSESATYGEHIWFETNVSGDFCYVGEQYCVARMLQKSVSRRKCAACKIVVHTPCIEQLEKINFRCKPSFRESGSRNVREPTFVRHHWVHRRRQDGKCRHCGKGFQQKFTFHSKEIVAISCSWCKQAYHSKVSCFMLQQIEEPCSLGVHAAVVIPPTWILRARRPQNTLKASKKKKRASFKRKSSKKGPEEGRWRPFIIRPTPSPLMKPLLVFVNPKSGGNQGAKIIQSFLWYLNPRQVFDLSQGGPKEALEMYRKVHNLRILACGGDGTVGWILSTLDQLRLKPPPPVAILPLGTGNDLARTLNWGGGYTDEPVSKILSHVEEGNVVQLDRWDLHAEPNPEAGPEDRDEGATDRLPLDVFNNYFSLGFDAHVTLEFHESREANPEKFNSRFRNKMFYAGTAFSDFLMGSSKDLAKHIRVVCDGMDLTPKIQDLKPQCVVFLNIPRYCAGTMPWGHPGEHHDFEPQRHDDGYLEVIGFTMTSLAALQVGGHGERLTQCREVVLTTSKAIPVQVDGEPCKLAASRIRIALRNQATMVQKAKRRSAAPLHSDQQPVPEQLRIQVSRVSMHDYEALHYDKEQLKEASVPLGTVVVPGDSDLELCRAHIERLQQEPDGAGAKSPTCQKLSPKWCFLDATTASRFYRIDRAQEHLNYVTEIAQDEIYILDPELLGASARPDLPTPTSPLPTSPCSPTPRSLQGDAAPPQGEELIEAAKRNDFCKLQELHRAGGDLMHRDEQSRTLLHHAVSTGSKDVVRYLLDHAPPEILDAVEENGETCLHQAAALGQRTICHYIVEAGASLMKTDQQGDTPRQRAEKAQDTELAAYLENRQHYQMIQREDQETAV
Protocol: as §1, §2
Human His-TEV-DGK-zeta-pFastBac1 and human baculovirus samples was generated using the Bac-to-Bac baculovirus expression system (Invitrogen) according to the manufacturer's protocol. The DNA used for expression of DGK-zeta, have SEQ ID Nos: 1. Baculovirus amplification was achieved using infected SF9 cells at 1:2000 virus/cells ratios, and grown for 96 hours at 27° C. post-transfected.
The expression scaled up for each protein was carried out in the […] from CORNING. 4 L of 3×10^6 cells/mL Sf9 cells (Expression System, Invitrogen) grown in SF900™ II SFM insect medium (Expression System) was infected with virus stock at 1:200 virus/cells ratio, and grown for 48 hours at 27° C. post-transfection. The infected cell culture was harvested by centrifugation at 6000 rpm for 15 min 4° C. in a SORVALL LYNX6000 centrifuge. The cell pellets were stored at −80° C.
Full length human DGKζ produced as described above, was purified from Sf9 baculovirus-infected insect cell paste. The cells were lysed using sonication method, and the lysates were clarified by centrifugation.

Chain of DGKα (P23743 whole entry): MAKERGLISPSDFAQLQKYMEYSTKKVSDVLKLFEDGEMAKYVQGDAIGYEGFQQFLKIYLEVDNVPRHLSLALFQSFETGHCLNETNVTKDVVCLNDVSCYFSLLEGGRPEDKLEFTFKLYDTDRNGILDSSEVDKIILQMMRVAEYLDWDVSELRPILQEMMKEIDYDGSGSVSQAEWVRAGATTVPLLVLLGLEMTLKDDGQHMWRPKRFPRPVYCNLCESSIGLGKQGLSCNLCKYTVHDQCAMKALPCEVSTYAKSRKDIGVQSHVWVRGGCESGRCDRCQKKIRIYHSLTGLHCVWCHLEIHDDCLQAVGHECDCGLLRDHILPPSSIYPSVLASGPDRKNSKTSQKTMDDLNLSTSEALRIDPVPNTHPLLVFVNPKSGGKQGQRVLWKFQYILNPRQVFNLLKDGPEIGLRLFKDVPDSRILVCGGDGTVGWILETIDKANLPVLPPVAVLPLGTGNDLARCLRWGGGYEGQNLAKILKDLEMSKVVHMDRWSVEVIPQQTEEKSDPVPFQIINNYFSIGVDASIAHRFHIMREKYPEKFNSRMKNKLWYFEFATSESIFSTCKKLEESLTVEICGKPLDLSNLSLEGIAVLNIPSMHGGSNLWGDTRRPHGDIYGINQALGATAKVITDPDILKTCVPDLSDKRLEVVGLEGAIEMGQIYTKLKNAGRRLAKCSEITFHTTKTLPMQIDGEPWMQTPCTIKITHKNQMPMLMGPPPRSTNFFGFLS

| IC50 [1] [nM] | IC50 [2] [nM] | Compound |
| --- | --- | --- |
| 469 | 31 | CC[C@H]1CN(C(C)c2ccc3scnc3c2F)[C@H](CC)CN1c1cc(=O)n(C)c2cn(CC#N)nc12 (single isomer, unassigned) [Compound A110a] |
| 10500 | 1720 | CC[C@H]1CN(C(C)c2ccc3scnc3c2F)[C@H](CC)CN1c1cc(=O)n(C)c2cn(CC#N)nc12 (single isomer, unassigned) [Compound A110b] |
| 2540 | > 10000 | CC#CCn1cc2c(n1)c(N1C[C@@H](CC)N(C(C)c3nc4ccccc4nc3C)C[C@@H]1C)cc(=O)n2C (single isomer, unassigned) [Compound A111a] |
| 1250 | 55 | CC#CCn1cc2c(n1)c(N1C[C@@H](CC)N(C(C)c3nc4ccccc4nc3C)C[C@@H]1C)cc(=O)n2C (single isomer, unassigned) [Compound A111b] |
| 65 | 78 | CC#CCn1cc2c(n1)c(N1C[C@@H](CC)N(C(C)c3ccc4ncsc4c3)C[C@@H]1C)cc(=O)n2C (single isomer, unassigned) [Compound A112a] |
| 497 | > 10000 | CC#CCn1cc2c(n1)c(N1C[C@@H](CC)N(C(C)c3ccc4ncsc4c3)C[C@@H]1C)cc(=O)n2C (single isomer, unassigned) [Compound A112b] |
| 32 | 83 | CC#CCn1cc2c(n1)c(N1C[C@@H](CC)N(C(C)c3ccc4nc(C)sc4c3)C[C@@H]1CC)cc(=O)n2C (single isomer, unassigned) [Compound A114a] |
| 391 | 3200 | CC#CCn1cc2c(n1)c(N1C[C@@H](CC)N(C(C)c3ccc4nc(C)sc4c3)C[C@@H]1CC)cc(=O)n2C (single isomer, unassigned) [Compound A114b] |
| 269 | 431 | CC#CCn1cc2c(n1)c(N1C[C@@H](CC)N(C(C)c3ccc4nc(C)sc4c3)C[C@@H]1C)cc(=O)n2C (single isomer, unassigned) [Compound A115a] |
| 1250 | 6490 | CC#CCn1cc2c(n1)c(N1C[C@@H](CC)N(C(C)c3ccc4nc(C)sc4c3)C[C@@H]1C)cc(=O)n2C (single isomer, unassigned) [Compound A115b] |
| 2330 | 181 | CC#CCn1cc2c(n1)c(N1C[C@@H](CC)N(C(C)c3ccc4nc(C)sc4c3F)C[C@@H]1C)cc(=O)n2C (single isomer, unassigned) [Compound A116a] |
| 21000 | > 10000 | CC#CCn1cc2c(n1)c(N1C[C@@H](CC)N(C(C)c3ccc4nc(C)sc4c3F)C[C@@H]1C)cc(=O)n2C (single isomer, unassigned) [Compound A116b] |
| 1370 | 1320 | CC[C@H]1CN(C(C)c2ccc3ncsc3n2)[C@H](CC)CN1c1nc(=O)n(C)c2cn(CC#N)nc12 (single isomer, unassigned) [Compound A126a] |
| 93 | 51 | CC[C@H]1CN(C(C)c2ccc3ncsc3n2)[C@H](CC)CN1c1nc(=O)n(C)c2cn(CC#N)nc12 (single isomer, unassigned) [Compound A126b] |
| 357 | 71 | CC[C@H]1CN(C(C)c2ccc(C3CC3)nc2)[C@H](CC)CN1c1nc(=O)n(C)c2cn(CC#N)nc12 (single isomer, unassigned) [Compound A127a] |
| 3360 | 3280 | CC[C@H]1CN(C(C)c2ccc(C3CC3)nc2)[C@H](CC)CN1c1nc(=O)n(C)c2cn(CC#N)nc12 (single isomer, unassigned) [Compound A127b] |
| 375 | 60 | CC[C@H]1CN(C(C)c2cc3sc(C)nc3cc2F)[C@H](CC)CN1c1nc(=O)n(C)c2cn(CC#N)nc12 (single isomer, unassigned) [Compound A128a] |
| 4480 | 694 | CC[C@H]1CN(C(C)c2cc3sc(C)nc3cc2F)[C@H](CC)CN1c1nc(=O)n(C)c2cn(CC#N)nc12 (single isomer, unassigned) [Compound A128b] |

| IC50 [1] [nM] | IC50 [2] [nM] | Compound |
| --- | --- | --- |
| 2100 | 626 | CC[C@H]1CN(C(C)c2ccc3nc(C)sc3n2)[C@H](CC)CN1c1nc(=O)n(C)c2cn(CC#N)nc12 (single isomer, unassigned) [Compound A129a] |
| 192 | 45 | CC[C@H]1CN(C(C)c2ccc3nc(C)sc3n2)[C@H](CC)CN1c1nc(=O)n(C)c2cn(CC#N)nc12 (single isomer, unassigned) [Compound A129b] |
| 3280 | 1520 | CC[C@H]1CN(C(C)c2ccc3nc(C)sc3n2)[C@H](CC)CN1c1cc(=O)n(C)c2cn(CC#N)nc12 (single isomer, unassigned) [Compound A133a] |
| 61 | 24 | CC[C@H]1CN(C(C)c2ccc3nc(C)sc3n2)[C@H](CC)CN1c1cc(=O)n(C)c2cn(CC#N)nc12 (single isomer, unassigned) [Compound A133b] |
| 3390 | 3920 | [2H]C([2H])([2H])n1c(=O)cc(N2C[C@@H](CC)N(C(C)c3ccc4nc(C)sc4n3)C[C@@H]2CC)c2nn(CC#N)cc21 (single isomer, unassigned) [Compound A134a] |
| 108 | 22 | [2H]C([2H])([2H])n1c(=O)cc(N2C[C@@H](CC)N(C(C)c3ccc4nc(C)sc4n3)C[C@@H]2CC)c2nn(CC#N)cc21 (single isomer, unassigned) [Compound A134b] |
| 86 | 96 | CCC(c1ccc(C(F)(F)F)cc1)N1C[C@H](CC)N(c2cc(=O)n(C)c3cn(CC#N)nc23)C[C@H]1CC (single isomer, unassigned) [Compound A135a] |
| 483 | 3750 | CCC(c1ccc(C(F)(F)F)cc1)N1C[C@H](CC)N(c2cc(=O)n(C)c3cn(CC#N)nc23)C[C@H]1CC (single isomer, unassigned) [Compound A135b] |
| 311 | 143 | CC#CCn1cc2c(n1)c(N1C[C@@H](CC)N(C(C)c3ccc4nc(C)sc4c3F)C[C@@H]1CC)cc(=O)n2C (single isomer, unassigned) [Compound A138a] |
| 2040 | 3280 | CC#CCn1cc2c(n1)c(N1C[C@@H](CC)N(C(C)c3ccc4nc(C)sc4c3F)C[C@@H]1CC)cc(=O)n2C (single isomer, unassigned) [Compound A138b] |
| 840 | 3380 | CC[C@H]1CN(C(C)c2ccc3nc(C)sc3n2)[C@H](CC)CN1c1c(C#N)c(=O)n(C)c2cn(CC#N)nc12 (single isomer, unassigned) [Compound A140a] |
| 93 | 45 | CC[C@H]1CN(C(C)c2ccc3nc(C)sc3n2)[C@H](CC)CN1c1c(C#N)c(=O)n(C)c2cn(CC#N)nc12 (single isomer, unassigned) [Compound A140b] |
| 1390 | 17.6 | CC#CCn1cc2c(n1)c(N1C[C@@H](CC)N(C(C)c3ccc4sc(C)nc4c3F)C[C@@H]1CC)cc(=O)n2C (single isomer, unassigned) [Compound A141a] |
| 6190 | 641 | CC#CCn1cc2c(n1)c(N1C[C@@H](CC)N(C(C)c3ccc4sc(C)nc4c3F)C[C@@H]1CC)cc(=O)n2C (single isomer, unassigned) [Compound A141b] |
| 1580 | 1350 | [2H]C([2H])([2H])C(c1ccc2nc(C)sc2n1)N1C[C@H](CC)N(c2cc(=O)n(C([2H])([2H])[2H])c3cn(CC#N)nc23)C[C@H]1CC (single isomer, unassigned) [Compound A142a] |
| 108 | 20 | [2H]C([2H])([2H])C(c1ccc2nc(C)sc2n1)N1C[C@H](CC)N(c2cc(=O)n(C([2H])([2H])[2H])c3cn(CC#N)nc23)C[C@H]1CC (single isomer, unassigned) [Compound A142b] |
| 3180 | 2150 | CC[C@H]1CN(C(C)c2ccc3nc(COC)sc3n2)[C@H](CC)CN1c1cc(=O)n(C)c2cn(CC#N)nc12 (single isomer, unassigned) [Compound A143a] |
| 153 | 39 | CC[C@H]1CN(C(C)c2ccc3nc(COC)sc3n2)[C@H](CC)CN1c1cc(=O)n(C)c2cn(CC#N)nc12 (single isomer, unassigned) [Compound A143b] |
